Experimental data as given in ChEMBL document CHEMBL1125352, “Synthesis of biologically active taxol analogues with modified phenylisoserine side chains” (1992).

Columns and labels:
Assay type in all cases: functional
Tubulin (Bos taurus) [1] = biological target: T1, Tubulin (Bos taurus) (UniProt Q6B856+Q862L2+Q862F3); test: Concentration to stimulate the assembly of tubulin into microtubules.
B16 [2] = test: Cytotoxicity against B16 melanoma cell line.; conditions: Mus musculus, read-out: ED50 (the source's name)
[3] = Ratio of ED50 of taxol to ED50 from cytotoxicity against B16 melanoma cell lines
[4] = Ratio of ED50 of taxol to ED50 from tubulin binding assay
Tubulin (Bos taurus) [5] = biological target: T1, Tubulin (Bos taurus); test: Concentration to stimulate the assembly of tubulin into microtubules at a dose of […]
B16 [6] = test: Cytotoxicity against B16 melanoma cell line.62% inhibition at 42 uM.; conditions: Mus musculus, read-out: ED50 (the source's name)
B16 [7] = test: Cytotoxicity against B16 melanoma cell line.40% inhibition at 1 uM; conditions: Mus musculus, read-out: ED50 (the source's name)

`CC(=O)O[C@H]1C(=O)[C@@]2(C)[C@H]([C@H](OC(=O)c3ccccc3)[C@]3(O)C[C@H](OC(=O)[C@H](O)[C@@H](NC(=O)c4ccccc4)c4ccc(Cl)cc4)C(C)=C1C3(C)C)[C@]1(OC(C)=O)CO[C@@H]1C[C@@H]2O` showed an ED50 (Tubulin (Bos taurus) [1]) of 1.3 µM, an EC50 (B16 [2]) of 0.061 µM and a Ratio [3] of 2.2. The Ratio [4] was 1.9.
Work on `CC(=O)O[C@H]1C(=O)[C@@]2(C)[C@H]([C@H](OC(=O)c3ccccc3)[C@]3(O)C[C@H](OC(=O)[C@H](O)[C@@H](NC(=O)c4ccc(Cl)cc4)c4ccccc4)C(C)=C1C3(C)C)[C@]1(OC(C)=O)CO[C@@H]1C[C@@H]2O` yielded an ED50 (Tubulin (Bos taurus) [1]) of 1.7 µM, an EC50 (B16 [2]) of 0.043 µM and a Ratio [3] of 1.5. It also gave a Ratio [4] of 2.4.
`O=C(N[C@@H](c1ccccc1)[C@@H](O)C(=O)O)c1ccccc1` (relative stereo) gave an ED50 (Tubulin (Bos taurus) [5]) greater than 10 µM, a Ratio [3] greater than 360 and a Ratio [4] greater than 14. The EC50 (B16 [6]) was greater than 10 µM.
`CC(=O)O[C@H]1C(=O)[C@@]2(C)[C@H]([C@H](OC(=O)c3ccccc3)[C@]3(O)C[C@H](OC(=O)[C@H](O)[C@@H](NC(=O)c4ccccc4)c4ccccc4)C(C)=C1C3(C)C)[C@]1(OC(C)=O)CO[C@@H]1C[C@@H]2O` [PACLITAXEL] showed an ED50 (Tubulin (Bos taurus) [1]) of 0.7 µM, an EC50 (B16 [2]) of 0.028 µM and a Ratio [3] of 1. For the same molecule, the Ratio [4] was 1.
`CC(=O)O[C@H]1C(=O)[C@@]2(C)[C@H]([C@H](OC(=O)c3ccccc3)[C@]3(O)C[C@H](O)C(C)=C1C3(C)C)[C@]1(OC(C)=O)CO[C@@H]1C[C@@H]2O` [BACCATIN III] showed an ED50 (Tubulin (Bos taurus) [5]) greater than 10 µM, a Ratio [3] greater than 36 and a Ratio [4] greater than 14. It also gave an EC50 (B16 [7]) greater than 1 µM.
